Laboratory results as given in patent publication US20100210017A1, “COMPOSITIONS AND METHODS FOR ENHANCING TOLERANCE FOR THE PRODUCTION OF ORGANIC CHEMICALS PRODUCED BY MICROORGANISMS” (priority 2007, published 2010).
≈ marks a conversion by molar mass, not a printed value. Like-named read-outs stand apart in the source and are kept apart here.

Legend:
Assay type in all cases: cell-based
[1] = system: E. coli (vector control; clone expressing aroH mutant); assay: 24 hour minimum inhibitory concentration of 3-HP in M9 minimal media; settings: Escherichia coli
Procedure: By use of the SCALEs methodology, a number of genetic targets for alleviating growth inhibition in the presence of 3-HP have been identified. […] A clone was constructed containing the tyrA-aroF operon and was cultured in the presence of 20 g/L 3-HP. Increased copy of this region partially alleviated growth inhibition, conferring a 15% increase in specific growth. […] One method to bypass this inherent control was obtaining an inducible feedback resistant aroH mutant that will increase the conversion of E-4-P while maintaining activity in the presence of increasing pools of downstream products, thus alleviating growth inhibition due to impaired synthesis of necessary byproducts of the chorismate pathway. […] In addition, the 24 hour minimum inhibitory concentration of 3-HP (the minimum concentration to stop visible growth at 24 hours) in M9 minimal media increased from 25 g/L for a vector control to 40 g/L for an E. coli clone expressing this aroH mutant. In certain embodiments herein, it is contemplated that the aroH mutant can be of use alone, or in combination with other genetic manipulations or selection to increase tolerance of 3-HP production in microorganisms.

[2] = system: Escherichia coli strain Mach1-T1^R containing pSMART-LCKAN empty vector; assay: Growth confirmations: media supplementation in presence of 3-HP; settings: for effect on specific growth in the presence of 3-HP: supplementation of the growth medium, 3-HP present
Description: Some methods concern wild-type Escherichia coli K12 (ATCC # 29425) used for the preparation of genomic DNA. Genomic libraries were constructed using the pSMART-LCKAN (Lucigen, Middleton, Wis.). Libraries were introduced into Escherichia coli strain Mach1-T1^R (Invitrogen, Carlsbad, Calif.) for selections as previously detailed. Mach1-T1^R containing pSMART-LCKAN empty vector were used for all control studies. Growth curves were done in MOPS Minimal Media. In this example, the antibiotic concentration was 20 ug kanamycin/mL.
Overnight cultures of Mach1-T1^R+pSMART LC-KAN were inoculated into 5 mL LB+kanamycin. Growth curves were constructed by inoculating into 15 mL screw cap tubes containing supplements (Table 1) and 15 mL MOPS Minimal Media+kanamycin+3-HP from overnight culture. Cultures were incubated at 37° C. and optical density was monitored to an OD600>0.2. Cultures were then diluted to an exact OD600=0.2 and were used to inoculate cultures containing 15 mL MOPS Minimal Media+kanamycin+3-HP (pH=7.0) to an initial optical density of […] in order to minimize effects of growth in stationary phase. Optical density was monitored and recorded over the entire range of microaerobic growth in minimal media, or until a final OD600 0.5-0.6. Growth parameters were evaluated in terms of specific growth, OD600 at the culmination of the growth phase (approximately 14 hours), and OD600 at conclusion of maximum growth phase and final OD600 (24 hrs). To address specific intermediate limitations, associated chorismate pathway supplements were added to final concentrations listed in Table 1.
To confirm these findings, the culture medium was supplemented with products synthesized downstream of chorismate. The addition of each product individually stimulated growth, further confirming that the inhibition is occurring at, or prior to synthesis of chorismate (FIG. 3B). FIG. 3B represents growth confirmations: addition of products downstream of chorismate partially alleviate growth inhibition confirmed by increased specific growth (black) and increased OD600 at the culmination of the growth phase (grey). However, increasing the supplementation of several downstream products (tyrosine, phenylalanine, tryptophan) results in feedback inhibition of the first committed step to the chorismate super-pathway and will therefore reduce formation of other downstream products including ubiquinone, meniquinone, and tetrahydrofolate and limit the associated growth benefits.

[3] = system: bacterial culture capable of producing 3-HP; assay: 3-HP production with exogenously added tyrosine; settings: 0.2 mM tyrosine added to culture
Procedure: In certain embodiments, exogenously added tyrosine can be added to a bacterial culture capable of producing 3-HP. In certain particular embodiments, tyrosine concentrations can be about 0.05 mM to about 0.5 mM. In one example, 0.2 mM tyrosine was added to a culture and the increase in 3-HP production was about 35%.

[4] = system: E. coli Mach1; assay: Minimum inhibitory concentration of acrylic acid in minimal media; settings: Escherichia coli
Procedure: 3-HP composition obtained, for example, from TCI America for initial library selections and all subsequent growth confirmations can contain variable amounts of acrylic acid contamination. A minimum inhibitory concentration of acrylic acid for E. coli Mach1 grown in minimal media was determined to be around 0.6 g/L. In support that the tolerance mechanism specific to the chorismate super-pathway are exclusive to 3-HP toxicity, the minimum inhibitory concentrations of acrylic acid was determined to be 0.6 g/L for E. coli Mach1 grown in minimal media supplemented with addition of shikimate or homocysteine. Additionally, the minimal inhibitory concentration was determined to be 0.6 g/L for the feedback resistant aroH mutants grown in minimal media.

Question: For `O=C(O)CCO` [3-HP, 3-hydroxypropionic acid], which MIC ([1]; read-out: 24 hour minimum inhibitory concentration (minimum concentration to stop visible growth at 24 hours), M9 minimal media, E. coli clone expressing feedback resistant aroH mutant) is on record?
Answer: 40000 µg/mL

Question: And the MIC ([1]; read-out: 24 hour minimum inhibitory concentration (minimum concentration to stop visible growth at 24 hours), M9 minimal media, vector control)?
Answer: 25000 µg/mL

Question: `N[C@@H](Cc1ccccc1)C(=O)O` [Phenylalanine, phenylalanine] was tested. Which “effect on specific growth in the presence of 3-HP” value [2] did it give?
Answer: detrimental effect

Question: For `O=C(O)C1=C[C@@H](O)[C@@H](O)[C@H](O)C1` [Shikimate, shikimate], which “regeneration of growth compared with wild-type growth” value ([2]; addition of shikimate to growth media under 3-HP stress) is on record?
Answer: about 20%

Question: And the “effect on specific growth in the presence of 3-HP” value [2]?
Answer: dramatic increase in growth

Question: What does the source list for `N[C@@H](Cc1ccc(O)cc1)C(=O)O` [Tyrosine, tyrosine]?
Answer: effect on specific growth in the presence of 3-HP [2]: beneficial effect; increase in 3-HP production [3]: about 35%

Question: For `C=CC(=O)O` [acrylic acid], which MIC ([4]; MACH1, E. coli Mach1, minimal media supplemented with shikimate or homocysteine, read-out: minimum inhibitory concentration) is on record?
Answer: 600 µg/mL (≈ 8.33 mM)

Question: And the MIC ([4]; MACH1, E. coli Mach1 grown in minimal media, read-out: minimum inhibitory concentration)?
Answer: ~600 µg/mL (≈ 8.33 mM)

Question: And the MIC ([4]; MACH1, read-out: minimal inhibitory concentration, feedback resistant aroH mutants grown in minimal media)?
Answer: 600 µg/mL (≈ 8.33 mM)
